Patent publication US12589161B2, “PEGylated synthetic KL4 peptide, compositions and methods thereof” (THE UNIVERSITY OF HONG KONG, priority 2019, dated 2026)
Non-standard residues stand in square brackets, D forms with d. Residues, ends and D or L forms follow the SMILES beside them. PEG12 = NCCOCCOCCOCCOCCOCCOCCOCCOCCOCCOCCOCCOCCC(=O)O; PEG6 = NCCOCCOCCOCCOCCOCCOCCC(=O)O

Assays:
Calu-3 cells = test: GAPDH siRNA transfection on Calu-3 cells (Western blot); type: cell-based, human; details: one-way ANOVA, Tukey, n.s. not significant, * p<0.05, ** p<0.01, *** p<0.001
Method: (§1) A549 cells, BEAS-2B and Calu-3 cells were seeded in six-well plates at a density of 1.6×10^5 cells per well, 2×10^5 cells per well and 3×10^5 cells per well, respectively, one to two days before transfection. The cells were transfected with peptide/siRNA complexes at 5:1 to 20:1 ratio (w/w) containing GAPDH siRNA or negative control siRNA (6 to 100 nM) in OptiMEM I reduced serum medium. Lipofectamine 2000 was used for comparison. After 5 h of incubation, the cells were washed and replaced with serum supplemented cell culture medium. At 72 h post-transfection, the cells were washed and lysed with cell lysis buffer. Western blotting assay was performed to analyze the level of GAPDH protein as previously described. The GAPDH expression was analyzed by densitometry of Western blots using ImageJ software (Version 1.52). The GAPDH expression was normalized with the expression of […]-actin of the corresponding sample. The remaining GAPDH expression was the normalized GAPDH expression of positive control divided by the normalized GAPDH expression of negative control.

[1] = Charge ratio of peptide to siRNA at 10:1 weight ratio
Excerpt: This is partly because the uncharged PEG chains reduced the effective charge ratio between cationic KL4 and siRNA [77]. The charge ratios of KL4, PEG6KL4, PEG12KL4 and PEG24KL4 to siRNA at 10:1 weight ratio are 6.1 to 1, 5.5 to 1, 4.9 to 1 and 4.2 to 1, respectively. […] The molecular weight of the PEG used in this study, which is below 1,200 Da, is relatively low compared with others where PEG of 2,000 to 5,000 Da was often used. Therefore, PEGylated KL4 peptide/siRNA complexes remained to be positively charged, which is suitable for cellular entry. […] In addition, PEG also provides steric hindrance between the interaction of KL4 and siRNA that weakens the binding, promoting the release of siRNA from the complexes after the addition of heparin.

[2] = Solubility of peptides in water; type: physicochemical
BEAS-2B cells [3] = test: GAPDH siRNA transfection on BEAS-2B cells (Western blot); type: cell-based, human; details: for siRNA transfection efficiency: 50 nM siRNA, 72 h; for Comparison within the same peptide prepared at different peptide to siRNA ratios: one-way ANOVA, Tukey, n.s. not significant, * p<0.05, ** p<0.01, *** p<0.001
Method: as §1

A549 cells [4] = test: GAPDH siRNA transfection on A549 cells (Western blot); type: cell-based, human; details: for inhibition of GAPDH protein: A549, 25 nM siRNA, 10:1 ratio (w/w); for siRNA transfection efficiency among the four peptides at different amounts of siRNA: A549, 10:1 ratio, 6 to 100 nM siRNA; for Comparison within the same peptide prepared at different peptide to siRNA ratios: A549, one-way ANOVA, Tukey, n.s. not significant, * p<0.05, ** p<0.01, *** p<0.001
Method: A549 cells were seeded in 6-well plates at a density of 1.5×10^5 cells per well one day before transfection. The cells were transfected with peptide/siRNA complexes containing 50 pmol of GAPDH siRNA or negative control siRNA per well (50 nM). The complexes were prepared in OptiMEM I reduced serum medium at 10:1, 15:1 and 20:1 ratios (w/w). Lipofectamine 2000 was used as control. The complexes were added to the cells and incubated for 4 h at 5% CO2, 37° C. before being washed with PBS. The transfection medium was removed and replaced with serum supplemented cell culture medium. At 72 h post-transfection, the cells were washed and lysed with cell lysis buffer. Western blotting assay was performed to analyze the level of GAPDH protein. The GAPDH expression was analyzed by densitometry of Western Blots using Image J software. The remaining GAPDH expression was the density of the GAPDH band of positive control (normalized with beta-actin of the corresponding sample) divided by the GAPDH band of negative control (normalized with the beta actin band of the corresponding sample).
as §1

[5] = Circular dichroism, temperature ramping; type: physicochemical; details: 6 to 94 °C, 5 mM Tris-HCl buffer, 0.1 mg/mL
Method: KL4 and PEG6KL4 peptides were dissolved in 5 mM Tris-HCl buffer at a final concentration of 0.1 mg/mL in 0.1% (v/v) DMSO. PEG12KL4 and PEG24KL4 were dissolved in 5 mM Tris-HCl buffer at a final concentration of 0.1 mg/mL without DMSO. CD spectra were acquired on a Chirascan™ Spectrometer (Applied Photophysics, Leatherhead, UK). For temperature ramping experiment, far-UV CD spectra were obtained with the peptide solution incubated from 6° C. to 94° C. Spectra were recorded from 260 to 190 nm using a 0.5 mm path length and were processed using Chirascan software where a spectrum of the peptide free solution was subtracted and Savitzky-Gorlay smoothing applied.

A549 cells [6] = test: Luciferase mRNA transfection in vitro on A549 cells; type: cell-based, human; details: 24 h post-transfection
Method: (§2) A549 cells and BEAS-2B cells were seeded in 24-well plates at a density of 0.5×10^5 and 1×10^5 cells per well, respectively, for overnight. The KL4/mRNA and PEG12KL4/mRNA complexes formed at 5:1 to 30:1 ratio (w/w) in OptiMEM I reduced serum medium were added to the cells at 0.5 or 1 μg mRNA per well. Naked mRNA and lipoplexes (Lipofectamine 2000/mRNA complexes) were used as controls. After 4 h of incubation, the transfection medium was replaced with serum supplemented cell culture medium. At 24 h post-transfection, the cells were washed and lysed with reporter cell lysis buffer. The luciferase expression was detected using the luciferase assay system according to the manufacturer's protocol. The luminescence was measured with luminometer (SpectraMax L Microplate Reader, Molecular devices, CA, USA) and the protein concentrations of the cell lysates were quantified by Bradford protein assay. The results were expressed as relative light unit (RLU) per mg of total protein. To study the transfection efficiency of PEG12KL4/mRNA in SD and SFD powder formulations, the powders were reconstituted before adding to the cells. The luciferase expression was examined at 24 h post-transfection as described above.

A549 cells [7] = test: Cellular uptake study of mRNA (flow cytometry and confocal microscopy); type: cell-based, human; details: 10:1 ratio (w/w), cyanine-5 labelled mRNA, 4 h post-transfection, flow cytometry
Method: The cellular uptake of the mRNA was studied by flow cytometry and confocal microscopy. For the flow cytometry study, A549 cells were seeded in 24-well plates at a density of 0.5×10^5 cells per well one day before the experiment. The cells were transfected with naked mRNA, KL4/mRNA and PEG12KL4/mRNA complexes at 10:1 ratio (w/w) in OptiMEM I reduced serum medium containing 1 μg of cyanine-5 labelled EGFP mRNA per well. After 4 h of incubation, the cells were washed and trypsinized. Cells from three separate wells of the same treatment were combined and suspended in culture medium. The extracellular florescent signal was quenched with 0.04% (w/v) trypan blue solution. After 2 min, the cells were washed, resuspended in 300 μL of PBS and sieved with a sterile 40 μm cell strainer (BD Biosciences, CA, USA). The fluorescence intensity was analyzed by flow cytometry (BD FACSCantoII Analyzer, BD Biosciences, CA, USA). At least 1×10^4 single cells were analyzed for each sample. For the confocal study, A549 cells were seeded in a 35 mm Mattek glass bottom culture dish (Mattek Corp. Ashland, MA, USA) at a density of 1×10^5 cells per well one day before imaging. Naked mRNA, KL4/mRNA and PEG12KL4/mRNA complexes at 10:1 ratio (w/w) were prepared in Opti-MEM I reduced serum medium with 2 μg of cyanine-5 labelled mRNA per dish. […]

BEAS-2B cells [8] = test: Luciferase mRNA transfection in vitro on BEAS-2B cells; type: cell-based, human; details: 24 h post-transfection
Method: as §2

With CC(C)C[C@H](NC(=O)[C@H](CC(C)C)NC(=O)[C@H](CC(C)C)NC(=O)[C@H](CC(C)C)NC(=O)[C@H](CCCCN)NC(=O)[C@H](CC(C)C)NC(=O)[C@H](CC(C)C)NC(=O)[C@H](CC(C)C)NC(=O)[C@H](CC(C)C)NC(=O)[C@H](CCCCN)NC(=O)[C@H](CC(C)C)NC(=O)[C@H](CC(C)C)NC(=O)[C@H](CC(C)C)NC(=O)[C@H](CC(C)C)NC(=O)[C@H](CCCCN)NC(=O)[C@H](CC(C)C)NC(=O)[C@H](CC(C)C)NC(=O)[C@H](CC(C)C)NC(=O)[C@H](CC(C)C)NC(=O)[C@H](CCCCN)NC(=O)CCOCCOCCOCCOCCOCCOCCN)C(=O)N[C@@H](CCCCN)C(N)=O [PEG6KL4] (H-[PEG6]KLLLLKLLLLKLLLLKLLLLK-NH2; N-terminus assumed) the “Comparison within the same peptide prepared at different peptide to siRNA ratios” value (Calu-3 cells) was “n.s”, the “charge ratio of peptide to siRNA” value [1] was 5.5 to 1 and the solubility [2] was < 1000 µg/mL. The siRNA transfection efficiency (BEAS-2B cells [3]) was “significantly higher transfection efficiency compared with lipofectamine 2000”, the “Comparison within the same peptide prepared at different peptide to siRNA ratios” value (BEAS-2B cells [3]) was “n.s” and the “inhibition of GAPDH protein” value (A549 cells [4]; 72 h) was 80%. The “siRNA transfection efficiency among the four peptides at different amounts of siRNA” value (A549 cells [4]; 72 h) was “most effective in transfecting siRNA”, the “Comparison within the same peptide prepared at different peptide to siRNA ratios” value (A549 cells [4]) was “n.s” and the “secondary structure at different temperatures (far-UV CD)” value [5] was “adopted an alpha-helical structure at all tested temperatures”.
With CC(C)C[C@H](NC(=O)[C@H](CC(C)C)NC(=O)[C@H](CC(C)C)NC(=O)[C@H](CC(C)C)NC(=O)[C@H](CCCCN)NC(=O)[C@H](CC(C)C)NC(=O)[C@H](CC(C)C)NC(=O)[C@H](CC(C)C)NC(=O)[C@H](CC(C)C)NC(=O)[C@H](CCCCN)NC(=O)[C@H](CC(C)C)NC(=O)[C@H](CC(C)C)NC(=O)[C@H](CC(C)C)NC(=O)[C@H](CC(C)C)NC(=O)[C@H](CCCCN)NC(=O)[C@H](CC(C)C)NC(=O)[C@H](CC(C)C)NC(=O)[C@H](CC(C)C)NC(=O)[C@H](CC(C)C)NC(=O)[C@H](CCCCN)NC(=O)CCOCCOCCOCCOCCOCCOCCOCCOCCOCCOCCOCCOCCN)C(=O)N[C@@H](CCCCN)C(N)=O [PEG12KL4] (H-[PEG12]KLLLLKLLLLKLLLLKLLLLK-NH2; N-terminus assumed) the “mRNA transfection efficiency compared with Lipofectamine 2000” value (A549 cells [6]) was “comparable to that of Lipofectamine 2000”, the “percentage of cells with mRNA uptake” value (A549 cells [7]) was “Over 60%” and the “charge ratio of peptide to siRNA” value [1] was 4.9 to 1. The “mRNA transfection efficiency compared with Lipofectamine 2000” value (BEAS-2B cells [8]) was “comparable to that of Lipofectamine 2000”, the solubility [2] was > 2000 µg/mL and the siRNA transfection efficiency (BEAS-2B cells [3]) was “significantly higher transfection efficiency compared with lipofectamine 2000”. The “Comparison within the same peptide prepared at different peptide to siRNA ratios” value (BEAS-2B cells [3]) was “n.s”, the “inhibition of GAPDH protein” value (A549 cells [4]; 72 h) was 80% and the “siRNA transfection compared with KL4” value (A549 cells [4]; A549, 10:1, 15:1 and 20:1 ratios, 50 pmol siRNA, 72 h, n=1 (FIG. 13)) was “superior to KL4 in mediating siRNA transfection at all tested ratios”. The “siRNA transfection efficiency among the four peptides at different amounts of siRNA” value (A549 cells [4]; 72 h) was “most effective in transfecting siRNA”, the “Comparison within the same peptide prepared at different peptide to siRNA ratios” value (A549 cells [4]) was “n.s” and the “secondary structure at different temperatures (far-UV CD)” value [5] was “more sensitive in response to temperature compared with the other peptides”.
